Results as given in US20240109937A1, “BINDING PEPTIDES AND USES THEREOF” (The Johns Hopkins University, priority 2021, published 2024).

How the values were obtained:
CAPN1 [1] = target: T1, CAPN1 (Mus musculus, UniProt O35350); experiment: Calpain activity assay (Suc-LLVY-AMC cleavage) in HL-1 cells under Ca2+ overload; format: cell-based; details: Calcimycin 1 μM in HBS KV medium, dose-dependent response
T1 construct: endogenous in cells; host or cells: HL-1 cardiomyocytes
T1 sequence (O35350 1-713): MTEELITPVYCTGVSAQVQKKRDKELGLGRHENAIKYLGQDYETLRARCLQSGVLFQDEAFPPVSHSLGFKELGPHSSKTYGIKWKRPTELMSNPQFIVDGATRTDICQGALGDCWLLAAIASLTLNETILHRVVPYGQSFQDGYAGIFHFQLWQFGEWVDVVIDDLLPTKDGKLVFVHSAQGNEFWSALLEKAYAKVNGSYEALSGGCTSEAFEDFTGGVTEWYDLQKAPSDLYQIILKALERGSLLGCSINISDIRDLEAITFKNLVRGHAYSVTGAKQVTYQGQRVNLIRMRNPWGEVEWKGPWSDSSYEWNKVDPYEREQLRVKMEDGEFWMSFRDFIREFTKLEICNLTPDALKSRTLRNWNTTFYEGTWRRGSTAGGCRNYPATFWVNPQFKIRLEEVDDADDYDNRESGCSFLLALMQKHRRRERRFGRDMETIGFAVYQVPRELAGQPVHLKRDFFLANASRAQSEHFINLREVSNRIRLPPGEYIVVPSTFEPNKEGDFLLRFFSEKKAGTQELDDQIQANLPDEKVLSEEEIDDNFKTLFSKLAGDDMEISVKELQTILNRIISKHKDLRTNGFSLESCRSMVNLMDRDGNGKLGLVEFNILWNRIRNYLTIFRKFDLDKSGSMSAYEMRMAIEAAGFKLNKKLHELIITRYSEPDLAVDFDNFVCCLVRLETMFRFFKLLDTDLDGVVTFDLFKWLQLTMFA
T1 sequence (O88456 1-268 partner): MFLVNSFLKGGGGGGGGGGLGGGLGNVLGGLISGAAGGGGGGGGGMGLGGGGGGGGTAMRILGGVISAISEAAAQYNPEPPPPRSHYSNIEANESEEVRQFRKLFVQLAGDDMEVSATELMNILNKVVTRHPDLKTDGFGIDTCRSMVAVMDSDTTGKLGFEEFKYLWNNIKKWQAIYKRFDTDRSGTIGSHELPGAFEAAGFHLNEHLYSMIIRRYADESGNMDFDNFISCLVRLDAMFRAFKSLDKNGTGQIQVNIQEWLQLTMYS
Description: Calcium (Ca^2+) Overload Protocol: Rapid and sustained intracellular Ca^2+ overload was obtained by adding the Ca^2+-ionophore, calcimycin (1 μM), to HL-1 cells incubated for 10 min in HBS KV medium (1.26 mM CaCl2, 0.81 mM MgSO4, 0.44 mM KH2PO4, 142 mM KCl, 0.27 mM K2HPO4, 5.55 mM D-glucose, 1 mM Na3VO4, 20 mM Hepes pH 7.4). To monitor intracellular Ca^2+ variations, HL-1 cells were loaded with 5 μM Fluo-4 FF AM (Molecular Probes) in HBS Na (Sigma) for 30 min before the media was replaced with HBS KV. […] Calpain (CAPN) Activity Assay: […] HL-1 cells were grown in 24-well plates and incubated for 30 min in HBS Na (Sigma) with 25 μM Suc-LLVY-AMC (SEQ ID NO: 81) and 0.01% pluronic F127 (Molecular Probes) before treatment protocols. […] CAPN activity was inhibited via the addition of either calpeptin (Tocris) or PD150606 (Calbiochem) in the incubation medium.

HL-1 cells = experiment: Mitochondrial membrane potential (JC-1) assay in HL-1 cells; format: cell-based, mouse; details: Calcimycin 1 μM in HBS KV medium
Description: Calcium (Ca^2+) Overload Protocol: Rapid and sustained intracellular Ca^2+ overload was obtained by adding the Ca^2+-ionophore, calcimycin (1 μM), to HL-1 cells incubated for 10 min in HBS KV medium (1.26 mM CaCl2, 0.81 mM MgSO4, 0.44 mM KH2PO4, 142 mM KCl, 0.27 mM K2HPO4, 5.55 mM D-glucose, 1 mM Na3VO4, 20 mM Hepes pH 7.4). To monitor intracellular Ca^2+ variations, HL-1 cells were loaded with 5 μM Fluo-4 FF AM (Molecular Probes) in HBS Na (Sigma) for 30 min before the media was replaced with HBS KV. […] Mitochondrial Membrane Potential (MMP) Assay: MMP was determined using the potentiometric probe, JC-1. JC-1 (Molecular Probes) is a cationic carbocyanine dye that selectively accumulates in polarized mitochondria, where it forms red fluorescent aggregates (excitation 485/emission 590 nm). Upon mitochondrial depolarization, JC-1 is released into the cytosol, whereas a monomer emits green fluorescence (excitation 485 nm/emission 520 nm). Therefore, MMP variations were monitored as the ratio of fluorescent emissions at 590/520 nm using a fluorimeter plate reader (Fluoroskan Ascent Labsystem). HL-1 cells were incubated with JC-1 (1.5 μM) for 30 min at 37° C. in HBS Na before treatment protocols.

CAPN1 [2] = target: T1, CAPN1; experiment: Western blot of CAPN1 in purified mitochondria from HL-1 cells under Ca2+ overload; format: cell-based; details: Ca2+ overload (HBS KVC), calpeptin 50 μM, PD150606 10 μM
Description: Calcium (Ca^2+) Overload Protocol: Rapid and sustained intracellular Ca^2+ overload was obtained by adding the Ca^2+-ionophore, calcimycin (1 μM), to HL-1 cells incubated for 10 min in HBS KV medium (1.26 mM CaCl2, 0.81 mM MgSO4, 0.44 mM KH2PO4, 142 mM KCl, 0.27 mM K2HPO4, 5.55 mM D-glucose, 1 mM Na3VO4, 20 mM Hepes pH 7.4). To monitor intracellular Ca^2+ variations, HL-1 cells were loaded with 5 μM Fluo-4 FF AM (Molecular Probes) in HBS Na (Sigma) for 30 min before the media was replaced with HBS KV. The fluorescence was recorded using a fluorimeter plate reader (Fluoroskan Ascent Labsystem) at wavelength settings of 485/530 nm for excitation/emission, respectively.
Mitochondria Isolation Protocol: Mitochondria were isolated from HL-1 cells in percoll density gradient. Briefly, 30×10^6 adherent cells were harvested with Trypsin/EDTA, centrifuged at 500×g for 10 min, washed in buffer A (100 mM sucrose, 1 mM EGTA, 20 mM MOPS, pH 7.4, and 1 mg/mL BSA) before cell disruption with a Dounce homogenizer. The suspension was centrifuged twice at 500× g for 5 min and the resulting supernatant at 10,000×g for 10 min at 4° C. The pellet was re-suspended in buffer B (300 mM sucrose, 1 mM EGTA, 20 mM MOPS pH 7.4, 1 mg/mL BSA), and the homogenate was layered on a two-phase (25% and 40%) percoll density gradient. […]

CCCC[C@@H](C=O)NC(=O)[C@H](CC(C)C)NC(=O)OCc1ccccc1 [calpeptin]
reduction in Ca2+ overload-induced CAPN1 substrate hydrolysis (CAPN1 [1]): ~75% | Ca2+ overload-induced decrease in mitochondrial membrane potential (MMP) (HL-1 cells): significantly attenuated | mitochondrial CAPN1 translocation (CAPN1 [2]): failed to prevent
